Measurements reported in patent US20240189287A1, “PERIPHERALLY RESTRICTED CB1 RECEPTOR BLOCKERS AND USES THEREOF” (BIONANOSIM (BNS) LTD, priority 2021, published 2024).
Like-named read-outs stand apart in the source and are kept apart here.

Key:
[1] = tested on: Salmonella typhimurium (TA98, TA100)
CB1 receptor [2] = molecular target: T1, CB1 receptor (Mus musculus (Mouse), UniProt P47746); test: [35S]GTPγS binding assay for CB1 receptor, mouse brain membranes; type: biochemical; settings: nature of binding: agonist/antagonist/inverse agonist
T1 sequence (P47746 whole entry): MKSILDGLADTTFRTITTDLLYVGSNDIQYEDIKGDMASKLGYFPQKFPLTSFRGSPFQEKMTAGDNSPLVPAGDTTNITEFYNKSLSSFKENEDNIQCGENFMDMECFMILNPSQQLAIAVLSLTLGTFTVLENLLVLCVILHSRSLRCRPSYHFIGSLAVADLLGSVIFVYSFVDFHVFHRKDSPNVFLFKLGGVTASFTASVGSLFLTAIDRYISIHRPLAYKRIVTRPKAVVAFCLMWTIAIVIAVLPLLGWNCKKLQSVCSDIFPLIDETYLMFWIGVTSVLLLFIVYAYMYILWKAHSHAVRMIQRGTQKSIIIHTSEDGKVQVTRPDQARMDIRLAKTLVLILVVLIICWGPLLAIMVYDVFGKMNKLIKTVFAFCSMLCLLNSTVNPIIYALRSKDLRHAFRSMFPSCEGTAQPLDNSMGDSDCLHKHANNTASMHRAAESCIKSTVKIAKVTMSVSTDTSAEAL
Method: For CB1 receptor-mouse brains were dissected and P2 membranes prepared and resuspended at ˜2 μg protein/μL in 1 ml assay buffer (50 mM Tris HCl, 9 mM MgCl2, 0.2 mM EDTA, 150 mM NaCl; pH 7.4). Ligand-stimulated [^35S]GTPγS binding was assayed as described previously (Tam et al., JCI 2010). Briefly, membranes (10 μg protein) were incubated in assay buffer containing 100 μM GDP, 0.05 nM [^35S]GTPγS, test compounds at various concentrations (CP55940/Rimonabant as controls and test compounds for BB8 conjugates), and 1.4 mg/mL fatty acid-free BSA in siliconized glass tubes. Membranes with bound ligand ([^35S]GTPγS) were separated from free ligand by vacuum filtration and were analyzed using β counter as described above. Non-specific binding was determined using 10 μM GTPS (cold GTP). Basal binding was assayed in the absence of the tested compound and in the presence of GDP.

CB1 receptor [3] = molecular target: T1, CB1 receptor; test: CB1 receptor radioligand binding assay, [3H]CP-55,940 displacement, mouse brain membranes; settings: mouse (m) CB1 receptor; read-out: CB1R Ki (nM) (m)
Method: (§1) Radioligand binding assays: Binding affinity was determined by a radioligand binding assay. The different BB8-conjugates binding to CB1 and CB2 receptors was assessed in competition displacement assays using [^3H]CP-55.940 as the radioligand and crude membranes from mouse brain for CB1 receptor and human kidney cells for CB2 receptor.
CB1 receptor binding assay: Mouse brain membranes were used as the source material for CB1 receptors. The displacement of specifically bound tritiated CP-55.940 from these membranes using a standard filtration assay was used to determine the Ki values for the test compounds. Briefly. 20 μg of protein was incubated for 1 h at 30° C. in the presence of 0.5 nM [^3H]CP-55,940 and various concentrations (10^−5M-10^−11M) of test compound/control, final volume of 1 mL. The incubation was terminated by rapid filtration and washing, and the amount of specifically bound [^3H]CP-55,940 was determined. Briefly, membranes with bound [^3H]CP-55,940 were separated and washed from free ligand by vacuum filtration, adsorbing the membrane onto a Whatman glass microfiber filter paper ([…], Cat #1821271). Finally, the Whatman filter paper with adsorbed membranes was cut and placed in scintillation liquid (Ultima Gold) for 1 h at 25° C. followed by a β counter reading of bound [^3H]CP-55,940 radioligand. All data were in triplicates with Ki values determined using GraphPad Prism 7.02 analysis software. […] In some cases, membranes from human source were used to determine CB1 receptor binding affinity.

CB2 receptor = CB2 receptor (Homo sapiens (Human), UniProt P34972); test: CB2 receptor radioligand binding assay, [3H]CP-55,940 displacement, human kidney membranes; settings: for Ki: read-out: hCB2R Ki
Sequence of CB2 receptor (P34972 whole entry): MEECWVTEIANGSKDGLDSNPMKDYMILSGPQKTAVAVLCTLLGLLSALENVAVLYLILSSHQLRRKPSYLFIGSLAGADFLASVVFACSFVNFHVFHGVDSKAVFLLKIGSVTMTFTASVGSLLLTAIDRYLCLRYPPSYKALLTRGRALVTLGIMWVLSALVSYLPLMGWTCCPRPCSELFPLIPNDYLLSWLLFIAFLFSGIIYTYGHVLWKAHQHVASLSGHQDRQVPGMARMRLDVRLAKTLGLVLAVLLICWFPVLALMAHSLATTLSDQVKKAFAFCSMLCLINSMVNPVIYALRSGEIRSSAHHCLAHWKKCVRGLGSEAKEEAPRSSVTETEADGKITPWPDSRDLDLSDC
Method: as §1
CB2 receptor binding assay: Human kidney membranes were used as the source material for CB2 receptors. The displacement of specifically bound tritiated CP-55,940 from these membranes using a standard filtration assay was used to determine the Ki values for the test compounds. Briefly, 1.25 μg of protein was incubated for 1.5 h at 30° C. in the presence of 0.5 nM [^3H]CP-55,940 and various concentrations (10^−5M-10^−11M) of test compound/control, final volume of 1 mL. The incubation was terminated by rapid filtration and washing, and the amount of specifically bound [^3H]CP-55,940 was determined. Briefly, membranes with bound [^3H]CP-55,940 were separated and washed from free ligand by vacuum filtration, adsorbing the membrane onto a Whatman glass microfiber filter paper ([…], Cat #1821271). Finally, the Whatman filter paper with adsorbed membranes was cut and placed in scintillation liquid (Ultima Gold) for 1 h at 25° C. followed by a β counter reading of bound [^3H]CP-55,940 radioligand. All data were in triplicates with Ki values determined using GraphPad Prism 7.02 analysis software.

P-gp (MDR1, ABCB1) = test: MDR1-MDCK II cell permeation assay (bi-directional permeability, P-gp efflux); type: in vitro ADME; settings: dog; for Papp at 2.5 h, 2 μM: A to B
Method: (§2) Test and reference compounds were diluted with transport buffer (HBSS with 10 mM Hepes, pH 7.4) from stock solution to a concentration of 2 μM (DMSO<1%) and applied to the apical or basolateral side of the cell monolayer. Permeation of the test compounds from A to B direction or B to A direction was determined in duplicate with/without P-gp inhibitor (GF120918, 10 μM). […] The plate was incubated for 2.5 hours in CO2 incubator at 37±1° C., with 5% CO2 at saturated humidity without shaking. In addition, the efflux ratio of each compound was also determined. Test and reference compounds were quantified by LC-MS/MS analysis based on the peak area ratio of analyte/IS.
(§3) The in vitro bi-directional permeability across MDR1-MDCKII cells including P-glycoprotein (Pgp, ABCB1) efflux in the presence and absence of a P-gp inhibitor is an indicator as to the tendency of an orally administered compound to penetrate the brain.

MDR1-MDCKII cells = test: as above; type: in vitro ADME
Method: as §2, §3

HepG2 Cells = test: Cell Viability Assay in HepG2 Cells at 72 h; type: cell-based, human; settings: HepG2, 72 h
Method: The liver plays a central role in transforming and clearing chemicals, and therefore is susceptible to toxicity of these agents. BNS808, BNS822 and other selected compounds were tested in the HepG2 assay using […] to evaluate cytotoxicity.

[4] = MDCK-MDR1, pH 7.4, with GF120918, 10 μM, efflux ratio in the presence of P-gp inhibitor GF120918, read-out: MDR1 B:A/A:B (+P-gp inhibitor)
[5] = MDCK-MDR1, pH 7.4, efflux ratio, without P-gp inhibitor, read-out: MDR1 B:A/A:B

| mCB1R GTPγ[^35S] (activity) (CB1 receptor [2]) | Ki (CB1 receptor [3]) | Ki (CB2 receptor) | SMILES | also measured |
| --- | --- | --- | --- | --- |
| – | – | – | Nc1ccc2cc3ccccc3cc2c1 [2-Aminoanthracene, reference compound] | AMES result (positive/negative) ([1]; TA98, S9 yes): positive; AMES result (positive/negative) ([1]; TA100, S9 yes): positive |
| – | – | – | O=[N+]([O-])c1ccc2c(c1)Cc1ccccc1-2 [2-Nitroflurene, reference compound] | AMES result (positive/negative) ([1]; TA98, S9 no): positive |
| Antagonist | 64.5 nM | 0.988 µM | O=C(NC1CCCOc2c1nn(-c1ccccc1Cl)c2-c1ccc(Cl)cc1)c1ccccn1 (stereo not drawn) [BNS810, N-[2-(2-chlorophenyl)-3-(4-chlorophenyl)-5,6,7,8-tetrahydrooxepino[3,2-c]pyrazol-8-yl]pyridine-2-carboxamide] | – |
| Antagonist | 65.6 nM | 0.963 µM | O=C(NC1CCCOc2c1nn(-c1ccccc1Cl)c2-c1ccc(Cl)cc1)c1ccncn1 (stereo not drawn) [BNS811, N-[2-(2-chlorophenyl)-3-(4-chlorophenyl)-5,6,7,8-tetrahydrooxepino[3,2-c]pyrazol-8-yl]pyrimidine-4-carboxamide] | – |
| Antagonist | 16.3 nM | 1.3 µM | O=C(NC1CCCOc2c1nn(-c1ccccc1Cl)c2-c1ccc(Cl)cc1)c1ccncc1 (stereo not drawn) [BNS812, N-[2-(2-chlorophenyl)-3-(4-chlorophenyl)-5,6,7,8-tetrahydrooxepino[3,2-c]pyrazol-8-yl]pyridine-4-carboxamide] | – |
| – | 1130 nM | – | CNC(=O)NC1CCCOc2c1nn(-c1ccccc1Cl)c2-c1ccc(Cl)cc1 (stereo not drawn) [BNS813, 1-[2-(2-chlorophenyl)-3-(4-chlorophenyl)-5,6,7,8-tetrahydrooxepino[3,2-c]pyrazol-8-yl]-3-methyl-urea] | – |
| Antagonist | 18 nM | 6.31 µM | CS(=O)(=O)N1CCC(C(=O)NC2CCCOc3c2nn(-c2ccccc2Cl)c3-c2ccc(Cl)cc2)CC1 (stereo not drawn) [BNS815, N-[2-(2-chlorophenyl)-3-(4-chlorophenyl)-5,6,7,8-tetrahydrooxepino[3,2-c]pyrazol-8-yl]-1-methylsulfonyl-piperidine-4-carboxamide] | efflux ratio at 2.5 h, 2 μM (P-gp (MDR1, ABCB1); [4]): 0.63; Papp at 2.5 h, 2 μM (P-gp (MDR1, ABCB1); MDCK-MDR1, pH 7.4): 10.1 ×10⁻⁶ cm/s; P-gp substrate (MDR1-MDCKII cells): P-gp substrates and Yes; Rank Papp (MDR1-MDCKII cells): High; IC50 (HepG2 Cells; read-out: Absolute IC50): 55.9 µM |
| Inverse Agonist | 290 nM | – | O=C(NC1CCCOc2c1nn(-c1ccccc1Cl)c2-c1ccc(Cl)cc1)C1CCN(C(=O)c2cccnc2)CC1 (stereo not drawn) [BNS817, N-[2-(2-chlorophenyl)-3-(4-chlorophenyl)-5,6,7,8-tetrahydrooxepino[3,2-c]pyrazol-8-yl]-1-(pyridine-3-carbonyl)piperidine-4-carboxamide] | efflux ratio at 2.5 h, 2 μM (P-gp (MDR1, ABCB1); [4]): 0.64; Papp at 2.5 h, 2 μM (P-gp (MDR1, ABCB1); MDCK-MDR1, pH 7.4): 8.09 ×10⁻⁶ cm/s; efflux ratio at 2.5 h, 2 μM (P-gp (MDR1, ABCB1); [5]): 1.92; P-gp substrate (MDR1-MDCKII cells): P-gp substrates and Yes; Rank Papp (MDR1-MDCKII cells): High; hCB2R Ki (nM) (CB2 receptor): No binding |
| – | 922 nM | – | CNCC(=O)NC1CCCOc2c1nn(-c1ccccc1Cl)c2-c1ccc(Cl)cc1 (stereo not drawn) [BNS819, N-[2-(2-chlorophenyl)-3-(4-chlorophenyl)-5,6,7,8-tetrahydrooxepino[3,2-c]pyrazol-8-yl]-2-(methylamino)acetamide] | – |
| – | 877 nM | – | O=C(NC1CCCOc2c1nn(-c1ccccc1Cl)c2-c1ccc(Cl)cc1)[C@H]1CCCN1 (stereo partly drawn) [BNS820, (2R)—N-[2-(2-chlorophenyl)-3-(4-chlorophenyl)-5,6,7,8-tetrahydrooxepino[3,2-c]pyrazol-8-yl]pyrrolidine-2-carboxamide] | – |
| – | 1400 nM | – | O=C(NC1CCCOc2c1nn(-c1ccccc1Cl)c2-c1ccc(Cl)cc1)[C@@H]1CCCN1 (stereo partly drawn) [BNS821, (2S)—N-[2-(2-chlorophenyl)-3-(4-chlorophenyl)-5,6,7,8-tetrahydrooxepino[3,2-c]pyrazol-8-yl]pyrrolidine-2-carboxamide] | – |
| Antagonist | 56.7 nM | – | CC(C)(Oc1ccc(C(=O)c2ccc(Cl)cc2)cc1)C(=O)NC1CCCOc2c1nn(-c1ccccc1Cl)c2-c1ccc(Cl)cc1 (stereo not drawn) [BNS823, 2-[4-(4-chlorobenzoyl)phenoxy]-N-[2-(2-chlorophenyl)-3-(4-chlorophenyl)-5,6,7,8-tetrahydrooxepino[3,2-c]pyrazol-8-yl]-2-methyl-propanamide] | efflux ratio at 2.5 h, 2 μM (P-gp (MDR1, ABCB1); [4]): > 30.9; Papp at 2.5 h, 2 μM (P-gp (MDR1, ABCB1); MDCK-MDR1, pH 7.4): < 0.003 ×10⁻⁶ cm/s; efflux ratio at 2.5 h, 2 μM (P-gp (MDR1, ABCB1); [5]): > 27.9; P-gp substrate (MDR1-MDCKII cells): No; Rank Papp (MDR1-MDCKII cells): Low; hCB2R Ki (nM) (CB2 receptor): No binding |
| – | 456 nM | – | CS(=O)(=O)CC(=O)N1CCC(C(=O)NC2CCCOc3c2nn(-c2ccccc2Cl)c3-c2ccc(Cl)cc2)CC1 (stereo not drawn) [BNS824, N-[2-(2-chlorophenyl)-3-(4-chlorophenyl)-5,6,7,8-tetrahydrooxepino[3,2-c]pyrazol-8-yl]-1-(2-methylsulfonylacetyl)piperidine-4-carboxamide] | – |
| Antagonist | 1.6 nM | 0.127 µM | O=C(NC1CCCOc2c1nn(-c1ccccc1Cl)c2-c1ccc(Cl)cc1)C1CCN(S(=O)(=O)c2ccc(Cl)cc2)CC1 (stereo not drawn) [BNS825, N-[2-(2-chlorophenyl)-3-(4-chlorophenyl)-5,6,7,8-tetrahydrooxepino[3,2-c]pyrazol-8-yl]-1-(4-chlorophenyl)sulfonyl-piperidine-4-carboxamide] | IC50 (HepG2 Cells; Homo sapiens, read-out: Relative IC50): > 100 µM |
| – | – | – | CN[C@@H]1C[C@H]2O[C@@](C)([C@@H]1OC)n1c3ccccc3c3c4c(c5c6ccccc6n2c5c31)C(=O)NC4 [Staurosporine, reference compound] | IC50 (HepG2 Cells; read-out: Relative IC50): 0.06 µM |

| SMILES | mCB1R GTPγ[^35S] (activity) (CB1 receptor [2]) | Ki (CB1 receptor [3]) | Ki (CB2 receptor) | also measured |
| --- | --- | --- | --- | --- |
| CCOC(=O)N1CCC(C(=O)NC2CCCOc3c2nn(-c2ccccc2Cl)c3-c2ccc(Cl)cc2)CC1 (stereo not drawn) [BNS816, Ethyl-4-((2-(2-chlorophenyl)-3-(4-chlorophenyl)-5,6,7,8-tetrahydro-2H-oxepino[3,2-c]pyrazol-8-yl)carbamoyl)piperidine-1-carboxylate] | Inverse Agonist | 8.93 nM | 1.53 µM | efflux ratio at 2.5 h, 2 μM (P-gp (MDR1, ABCB1); [4]): 0.61; Papp at 2.5 h, 2 μM (P-gp (MDR1, ABCB1); MDCK-MDR1, pH 7.4): 6.99 ×10⁻⁶ cm/s; P-gp substrate (MDR1-MDCKII cells): No; Rank Papp (MDR1-MDCKII cells): High; MDR1 B:A/A:B (MDR1-MDCKII cells; efflux ratio, without P-gp inhibitor): 0.77 |
